Laboratory results from US8871756B2 (Hoffmann-La Roche Inc., priority 2011, dated 2014).
Counter-ions that a name gives are not always drawn.

Test system: RSV Long strain
Assay: Viral cytopathic effect (CPE) assay, anti-RSV activity
Assay type: cell-based, Respiratory Syncytial Virus
Conditions: RSV Long strain (ATCC); cell viability after 6 days, Cell Counting kit-8
How it was run: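 EC50 was derived from CCK-8 viability at 450/630 nm measured 6 days post-infection. Infection used enough RSV Long strain for approximately 80–90% cytopathic effect, in the presence of half-log serially diluted compound. Cells were plated the day before at 6×10^3 per well in DMEM/10% FBS.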

| Compound | EC50 [µM] |
| --- | --- |
| Cc1ccc2nc(N3CC[S+]([O-])c4ccccc4C3)nc(NCC3(CN)COC3)c2c1 (single isomer, unassigned; (+)) [Example 62-3, (+)-N-{[3-(Aminomethyl)oxetan-3-yl]methyl}-6-methyl-2-[1-oxido-2,3-dihydro-1,4-benzothiazepin-4(5H)-yl]quinazolin-4-amine] | 0.0013 |

Same assay, conditions: human respiratory syncytial virus, 144 h, RSV Long strain (ATCC); cell viability after 6 days, Cell Counting kit-8

| Compound | EC50 [µM] |
| --- | --- |
| NCC1(CNc2cc(N3CCS(=O)(=O)c4ccccc4C3)nc3ccccc23)COC1 [Example 3-52, N-{[3-(Aminomethyl)oxetan-3-yl]methyl}-2-(1,1-dioxido-2,3-dihydro-1,4-benzothiazepin-4(5H)-yl)quinolin-4-amine] | 0.005 |
| NCC1(CNc2nc(N3CCS(=O)(=O)c4ccccc4C3)nc3ccc(CO)cc23)COC1 [Example 109-2, [4-({[3-(Aminomethyl)oxetan-3-yl]methyl}amino)-2-(1,1-dioxido-2,3-dihydro-1,4-benzothiazepin-4(5H)-yl)quinazolin-6-yl]methanol] | 0.0015 |
| Cc1ccc2nc(N3CCS(=O)(=O)c4ccccc4C3)cc(N3C[C@@H]4NCCO[C@@H]4C3)c2c1 [Example 8-5, 4-{4-[(4aS,7aR)-Hexahydropyrrolo[3,4-b][1,4]oxazin-6(2H)-yl]-6-methylquinolin-2-yl}-2,3,4,5-tetrahydro-1,4-benzothiazepine 1,1-dioxide] | 0.074 |
| Cc1ccc2nc(N3CCS(=O)(=O)c4ccccc4C3)cc(OC3CCNCC3)c2c1 [Example 98-2] | 3.16 |
| Cc1cc2c(NCC3(N)COC3)cc(N3CCS(=O)(=O)c4ccccc4C3)nc2c(F)c1F [Example 5-10, N-[(3-Aminooxetan-3-yl)methyl]-2-(1,1-dioxido-2,3-dihydro-1,4-benzothiazepin-4(5H)-yl)-7,8-difluoro-6-methylquinolin-4-amine] | 0.397 |
| O=S1(=O)CCN(c2cc(NCCO)c3cc(Cl)ccc3n2)Cc2ccccc21 [Example 9-31, 2-{[6-Chloro-2-(1,1-dioxido-2,3-dihydro-1,4-benzothiazepin-4(5H)-yl)quinolin-4-yl]amino}ethanol] | 2.43 |
| Cc1ccc2nc(N3CCS(=O)(=O)c4ccccc4C3)nc(NCC3(N)COC3)c2c1 [Example 61-1, N-[(3-Aminooxetan-3-yl)methyl]-2-(1,1-dioxido-2,3-dihydro-1,4-benzothiazepin-4(5H)-yl)-6-methylquinazolin-4-amine] | 0.005 |
| Cc1ccc2nc(N3CCS(=O)(=O)c4ccccc4C3C)cc(NCC3(N)COC3)c2c1 (stereo not shown) [Example 2-8, N-[(3-Aminooxetan-3-yl)methyl]-6-methyl-2-(5-methyl-1,1-dioxido-2,3-dihydro-1,4-benzothiazepin-4(5H)-yl)quinolin-4-amine] | 0.055 |
| Cc1ccc2nc(N3CCS(=O)(=O)c4ccccc4C3)cc(N[C@@H]3CCOC3)c2c1 [Example 3-49, 2-(1,1-Dioxido-2,3-dihydro-1,4-benzothiazepin-4(5H)-yl)-6-methyl-N-[(3R)-tetrahydrofuran-3-yl]quinolin-4-amine] | 0.099 |
| Cc1ccc2nc(N3CCS(=O)(=O)c4ccccc4C3)cc(C)c2c1 [Example 99, 4-(4,6-Dimethylquinolin-2-yl)-2,3,4,5-tetrahydro-1,4-benzothiazepine 1,1-dioxide] | 3 |
| NC1(CNc2cc(N3CCS(=O)(=O)c4ccc(F)cc4C3)nc3ccc(Cl)cc23)COC1 [Example 3-3, N-[(3-Aminooxetan-3-yl)methyl]-6-chloro-2-(7-fluoro-1,1-dioxido-2,3-dihydro-1,4-benzothiazepin-4(5H)-yl)quinolin-4-amine] | 3.55 |
| NC1=NCC(CNc2cc(N3CCCc4ccccc4C3)nc3ccccc23)O1 (stereo not shown) [Example 126-1, N-[(2-Amino-4,5-dihydro-1,3-oxazol-5-yl)methyl]-2-(1,3,4,5-tetrahydro-2H-2-benzazepin-2-yl)quinolin-4-amine trifluoroacetate] | 0.79 |
| NCCNc1cc(N2CCCc3ccccc3C2)nc2ccccc12 [Example 118-9, N-[2-(1,3,4,5-Tetrahydro-2H-2-benzazepin-2-yl)quinolin-4-yl]ethane-1,2-diamine] | 0.202 |
| Cc1ccc2nc(N3CCS(=O)(=O)c4ccccc4C3)cc(N3CCC(NC4COC4)C3)c2c1 (stereo not shown) [Example 45-2, 1-[2-(1,1-Dioxido-2,3-dihydro-1,4-benzothiazepin-4(5H)-yl)-6-methylquinolin-4-yl]-N-(oxetan-3-yl)pyrrolidin-3-amine] | 0.253 |
| Cc1cccc2c(NCCCCCCCCN)cc(N3CCS(=O)(=O)c4ccccc4C3)nc12 [Example 12-7, N-[2-(1,1-Dioxido-2,3-dihydro-1,4-benzothiazepin-4(5H)-yl)-8-methylquinolin-4-yl]octane-1,8-diamine] | 0.226 |
| Cc1ccc2nc(N3CCS(=O)(=O)c4ccccc4C3)cc(N[C@H]3CC[C@@H](N)CC3)c2c1 [Example 3-18, cis-N-[2-(1,1-Dioxido-2,3-dihydro-1,4-benzothiazepin-4(5H)-yl)-6-methylquinolin-4-yl]-cyclohexane-1,4-diamine] | 0.024 |
| Cc1ccc2nc(N3CCS(=O)(=O)c4ccccc4C3)cc(N3CCC(N)C3)c2c1 (stereo not shown) [Example 25, 1-[2-(1,1-Dioxido-2,3-dihydro-1,4-benzothiazepin-4(5H)-yl)-6-methylquinolin-4-yl]pyrrolidin-3-amine] | 0.002 |
| Cc1ccc2nc(N3CCS(=O)(=O)c4ccccc4C3)nc(N)c2c1 [Example 59, 2-(1,1-Dioxido-2,3-dihydro-1,4-benzothiazepin-4(5H)-yl)-6-methylquinazolin-4-amine] | 0.746 |
| CO[C@@H]1CNC[C@H]1Nc1cc(N2CCS(=O)(=O)c3ccccc3C2)nc2ccc(C)cc12 (relative stereo) [Example 8-4, 2-(1,1-Dioxido-2,3-dihydro-1,4-benzothiazepin-4(5H)-yl)-N-[trans-4-methoxypyrrolidin-3-yl]-6-methylquinolin-4-amine] | 0.064 |
| NCCCNc1cc(N2CCS(=O)(=O)c3ccccc3C2)nc2ccc(OCCO)cc12 [Example 30-1, 2-({4-[(3-Aminopropyl)amino]-2-(1,1-dioxido-2,3-dihydro-1,4-benzothiazepin-4(5 H)-yl)quinolin-6-yl}oxy)ethanol] | 0.317 |
| COc1ccc2c(c1)S(=O)(=O)CCN(c1cc(NCC3(N)COC3)c3cc(Cl)ccc3n1)C2 [Example 3-13, N-[(3-Aminooxetan-3-yl)methyl]-6-chloro-2-(8-methoxy-1,1-dioxido-2,3-dihydro-1,4-benzothiazepin-4(5H)-yl)quinolin-4-amine] | 0.099 |
| NCCNc1cc(N2CCCc3ccc(O)cc3C2)nc2ccccc12 [Example 118-2, 2-{4-[(2-Aminoethyl)amino]quinolin-2-yl}-2,3,4,5-tetrahydro-1H-2-benzazepin-8-ol] | 0.048 |

Now from value to compound:

| EC50 [µM] | Compound |
| --- | --- |
| 0.283 | Cc1ccc2nc(N3CCC(F)(F)c4ccccc4C3)cc(NCCN(C)C)c2c1 [Example 111-8, N′-[2-(5,5-Difluoro-1,3,4,5-tetrahydro-2H-2-benzazepin-2-yl)-6-methylquinolin-4-yl]-N,N-dimethylethane-1,2-diamine] |
| 0.001 | Cc1ccc2nc(N3CCS(=O)(=O)c4ccccc4C3)cc(NCCCN)c2c1 [Example 9-3, N-[2-(1,1-Dioxido-2,3-dihydro-1,4-benzothiazepin-4(5H)-yl)-6-methylquinolin-4-yl]propane-1,3-diamine] |
| 0.526 | Cc1ccc2nc(N3CCS(=O)(=O)c4ccccc4C3)cc(NCCNCC(F)F)c2c1 [Example 5-11, N-(2,2-Difluoroethyl)-N′-[2-(1,1-dioxido-2,3-dihydro-1,4-benzothiazepin-4(5H)-yl)-6-methylquinolin-4-yl]ethane-1,2-diamine] |
| 0.005 | Cc1ccc2nc(N3CCS(=O)(=O)c4ccccc4C3)cc(NCCN)c2c1 [Example 9-16, N-[2-(1,1-Dioxido-2,3-dihydro-1,4-benzothiazepin-4(5H)-yl)-6-methylquinolin-4-yl]ethane-1,2-diamine] |
| 2.61 | Cc1ccc2nc(N3CCC(F)(F)c4ccccc4C3)cc(NCCOCCN)c2c1 [Example 110-2, N-[2-(2-Aminoethoxy)ethyl]-2-(5,5-difluoro-1,3,4,5-tetrahydro-2H-2-benzazepin-2-yl)-6-methylquinolin-4-amine] |
| 0.617 | CC(=O)Nc1cc(N2CCS(=O)(=O)c3ccccc3C2)nc2ccc(C)cc12 [Example 3-60, N-[2-(1,1-Dioxido-2,3-dihydro-1,4-benzothiazepin-4(5H)-yl)-6-methylquinolin-4-yl]acetamide] |
| 0.057 | Cc1ccc2nc(N3CC[S+]([O-])c4ccccc4C3)cc(NCC(F)(F)CN)c2c1 (stereo not shown) [Example 18-5, N-[2-(1-Oxido-2,3-dihydro-1,4-benzothiazepin-4(5H)-yl)-6-methylquinolin-4-yl]-2,2-difluoropropane-1,3-diamine] |
| 0.662 | Cc1ccc2nc(N3CCS(=O)(=O)c4ccccc4C3)cc(NCCC#N)c2c1 [Example 83, 3-{[2-(1,1-Dioxido-2,3-dihydro-1,4-benzothiazepin-4(5H)-yl)-6-methylquinolin-4-yl]amino}propanenitrile] |
| 0.063 | Cc1ccc2nc(N3CCCc4ccccc4C3)cc(NCCN)c2c1 [Example 118-3, N-[6-Methyl-2-(1,3,4,5-tetrahydro-2H-2-benzazepin-2-yl)quinolin-4-yl]ethane-1,2 diamine] |
| 0.092 | CO/N=C1\CCN(c2cc(NCC3(N)COC3)c3cc(C)ccc3n2)Cc2ccccc21 [Example 112-2, N-[(3-Aminooxetan-3-yl)methyl]-2-[(5E)-5-(methoxyimino)-1,3,4,5-tetrahydro-2H-2-benzazepin-2-yl]-6-methylquinolin-4-amine] |
| 5.97 | Cc1ccc2nc(N3CCC(F)(F)c4ccccc4C3)nc(NCC(F)(F)CN)c2c1 [Example 117, N-[2-(5,5-Difluoro-1,3,4,5-tetrahydro-2H-2-benzazepin-2-yl)-6-methylquinazolin-4-yl]-2,2-difluoropropane-1,3-diamine] |
